# The supplement of paper PMC11061612
# Tests used:
# Assay in all cases: Bliss excess, mean over the matrix (fraction); higher = more synergy
# [1] = tested on: ALL-PO (B-Lymphoblastic Leukemia)
# Method in brief: (§1)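 After 24 hours at 37°C and 5% CO2 in 1536-well plates, cells in DMEM/F12 or RPMI plus 10% FBS received two-drug dose matrices for 72 hours. Viability came from CellTiter-Glo 2.0 luminescence and was scaled as inhibition, anchored at 0 by vehicle wells and at 1 by blank wells. Combination Emax is taken as the second-highest inhibition in the matrix, and Bliss excess as the observed combination effect less EA + EB − EA·EB, with EA and EB the single-agent effects.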
# [2] = tested on: FTC-133 (Thyroid Gland Carcinoma)
# Method in brief: as §1
# [3] = tested on: LNZTA3WT4 (Low Grade Glioma)
# Method in brief: as §1
# [4] = tested on: NCI-H209 (Small Cell Lung Carcinoma)
# Method in brief: as §1
# NCI-H2052 (Mesothelioma) = tested on: NCI-H2052 (Mesothelioma)
# Method in brief: as §1
# [5] = tested on: SW1710 (Bladder Carcinoma)
# Method in brief: as §1
# [6] = tested on: OV-56 (Ovarian Carcinoma)
# Method in brief: as §1
# [7] = tested on: HuCCT1 (Biliary Tract Carcinoma)
# Method in brief: as §1
# [8] = tested on: ESS-1 (Other Solid Carcinomas)
# Method in brief: as §1
# [9] = tested on: HH (T-Cell Non-Hodgkin's Lymphoma)
# Method in brief: as §1
# EW-11 (Ewing's Sarcoma) = tested on: EW-11 (Ewing's Sarcoma)
# Method in brief: as §1
# [10] = tested on: OVCAR-5 (Ovarian Carcinoma)
# Method in brief: as §1
# [11] = tested on: BFTC-909 (Kidney Carcinoma)
# Method in brief: as §1
# GAMG (Glioblastoma) = tested on: GAMG (Glioblastoma)
# Method in brief: as §1
# [12] = tested on: YAPC (Pancreatic Carcinoma)
# Method in brief: as §1
# [13] = tested on: L-428 (Hodgkin's Lymphoma)
# Method in brief: as §1
# [14] = tested on: NUGC-4 (Gastric Carcinoma)
# Method in brief: as §1
# [15] = tested on: CAL-33 (Oral Cavity Carcinoma)
# Method in brief: as §1
# LOXIMVI (Melanoma) = tested on: LOXIMVI (Melanoma)
# Method in brief: as §1
Compound,Bliss excess [1],Bliss excess [2],Bliss excess [3],Bliss excess [4],Bliss excess (NCI-H2052 (Mesothelioma)),Bliss excess [5],Bliss excess [6],Bliss excess [7],Bliss excess [8],Bliss excess [9],Bliss excess (EW-11 (Ewing's Sarcoma)),Bliss excess [10],Bliss excess [11],Bliss excess (GAMG (Glioblastoma)),Bliss excess [12],Bliss excess [13],Bliss excess [14],Bliss excess [15],Bliss excess (LOXIMVI (Melanoma))
"C=CCn1c(=O)c2cnc(Nc3ccc(N4CCN(C)CC4)cc3)nc2n1-c1cccc(C(C)(C)O)n1 [AZD1775] + C[C@@H]1COCCN1C2=NC(=NC(=C2)C3(CC3)[S@](=N)(=O)C)C4=C5C=CNC5=NC=C4 [AZD6738] (first compound max 1 µM, partner max 10 µM)",0.0624,0.0508,0.0076,0.0422,-0.0197,0.0811,0.0141,-0.0205,-0.015,0.0379,-0.0282,0.0146,0.0858,-0.0218,-0.0399,0.0246,-0.0701,0.0324,-0.0609
"CCc1c2c(nc3ccc(O)cc13)-c1cc3c(c(=O)n1C2)COC(=O)[C@]3(O)CC [SN-38] + CN(C)CCCOc1ccc(-c2ccc3ncc4c(c3c2)n(C2CCOCC2)c(=O)n4C)cn1 [AZD0156] (first compound max 0.3 µM, 7x7, partner max 1 µM)",0.0685,-0.0031,0.0092,-0.0073,-0.0409,0.0111,0.0154,-0.0337,0.0109,-0.0452,-0.012,-0.0235,0.0225,0.0527,-0.0553,-0.0558,0.0208,0.0579,0.0017
"CN(C)CCCOc1ccc(-c2ccc3ncc4c(c3c2)n(C2CCOCC2)c(=O)n4C)cn1 [AZD0156] + CCN(CCO)CCCOc1ccc2c(Nc3cc(CC(=O)Nc4cccc(F)c4)[nH]n3)ncnc2c1 [AZD2811] (first compound max 1 µM, 7x7, partner max 1 µM)",-0.024,-0.0214,-0.0162,0.0922,-0.0123,-0.0288,-0.0176,-0.0274,0.0179,-0.0412,-0.084,-0.0281,-0.0015,-0.0244,-0.0536,0.0314,-0.0387,-0.0139,-0.0125
"CCN(CCO)CCCOc1ccc2c(Nc3cc(CC(=O)Nc4cccc(F)c4)[nH]n3)ncnc2c1 [AZD2811] + C[C@@H]1COCCN1C2=NC(=NC(=C2)C3(CC3)[S@](=N)(=O)C)C4=C5C=CNC5=NC=C4 [AZD6738] (first compound max 1 µM, 7x7, partner max 10 µM)",-0.0288,0.0103,-0.0315,0.0731,-0.0207,-0.0975,-0.11,-0.0767,-0.018,-0.033,-0.0229,-0.0429,-0.0231,-0.0399,-0.0367,0.0145,-0.0565,-0.0199,-0.0763
"COc1cccc(OCCCN)c1-c1cc(Nc2cnc(C#N)cn2)n[nH]1 [Prexasertib] + C[C@@H]1COCCN1C2=NC(=NC(=C2)C3(CC3)[S@](=N)(=O)C)C4=C5C=CNC5=NC=C4 [AZD6738] (first compound max 1 µM, 7x7, partner max 10 µM)",0.0584,0.0016,-0.0422,-0.0214,-0.0282,0.0092,0.0148,-0.0108,0.0056,-0.0053,0.0197,0.0185,0.0417,0.0414,0.0689,-0.0418,-0.0203,0.0296,-0.0165
"CCN(CCO)CCCOc1ccc2c(Nc3cc(CC(=O)Nc4cccc(F)c4)[nH]n3)ncnc2c1 [AZD2811] + O=C(c1cc(Cc2n[nH]c(=O)c3ccccc23)ccc1F)N1CCN(C(=O)C2CC2)CC1 [Olaparib] (first compound max 1 µM, 7x7, partner max 10 µM)",0.0133,-0.0174,-0.0005,0.0418,-0.0042,0.0073,-0.0081,-0.0187,0.021,-0.0353,0.0191,-0.0048,0.0468,-0.0041,-0.0124,0.0277,0,0.0044,0.0073
"COc1cccc2c1C(=O)c1c(O)c3c(c(O)c1C2=O)C[C@@](O)(C(=O)CO)C[C@@H]3O[C@H]1C[C@H](N)[C@H](O)[C@H](C)O1 [Doxorubicin] + Cc1cc2ncnn2cc1Nc1ncc2c(n1)n(C1CCOCC1)c(=O)n2C [AZD7648] (first compound max 1 µM, 7x7, partner max 10 µM)",0.143,0.0917,0.016,0.129,0.0122,0.0569,0.0345,-0.0073,0.0112,-0.0305,0.0408,-0.0058,0.0402,0.0479,-0.0304,0.0276,0.0402,0.0998,0.0582
"C[C@@H]1COCCN1c1cc(C2([S@](C)(=N)=O)CC2)nc(-c2ccnc3[nH]ccc23)n1 [AZD6738] + O=C(c1cc(Cc2n[nH]c(=O)c3ccccc23)ccc1F)N1CCN(C(=O)C2CC2)CC1 [Olaparib] (first compound max 10 µM, 7x7, partner max 10 µM)",0.018,-0.0401,-0.0197,-0.0599,0.026,-0.0498,-0.0159,-0.0264,0.0107,-0.0082,-0.014,-0.0994,0.0337,-0.0461,-0.0007,0.0227,-0.0163,0.0047,-0.0956
"CN(C)CCCOc1ccc(-c2ccc3ncc4c(c3c2)n(C2CCOCC2)c(=O)n4C)cn1 [AZD0156] + C[C@@H]1COCCN1C2=NC(=NC(=C2)C3(CC3)[S@](=N)(=O)C)C4=C5C=CNC5=NC=C4 [AZD6738] (first compound max 1 µM, 7x7, partner max 10 µM)",0.0402,-0.0043,-0.0016,0.0711,-0.0317,-0.0134,0.0361,0.0297,-0.0177,0.0175,-0.112,-0.001,0.027,-0.0485,-0.0354,0.0132,0.0101,-0.0178,0.0721
"COc1cccc(OCCCN)c1-c1cc(Nc2cnc(C#N)cn2)n[nH]1 [Prexasertib] + CN(C)CCCOc1ccc(-c2ccc3ncc4c(c3c2)n(C2CCOCC2)c(=O)n4C)cn1 [AZD0156] (first compound max 1 µM, 7x7, partner max 1 µM)",0.0036,-0.0596,-0.0321,0.0016,-0.025,-0.022,-0.0442,-0.0357,-0.0668,-0.0001,-0.0705,-0.0273,-0.0397,-0.0261,-0.0799,-0.0144,0.0697,-0.0018,0.0398
"C=CCn1c(=O)c2cnc(Nc3ccc(N4CCN(C)CC4)cc3)nc2n1-c1cccc(C(C)(C)O)n1 [AZD1775] + O=C(c1cc(Cc2n[nH]c(=O)c3ccccc23)ccc1F)N1CCN(C(=O)C2CC2)CC1 [Olaparib] (first compound max 1 µM, partner max 10 µM)",0.0063,-0.0645,-0.0395,-0.0579,-0.0602,-0.0299,-0.0576,-0.0149,-0.0316,-0.0449,-0.121,-0.041,0.0075,0.0147,-0.071,-0.0252,-0.0481,-0.0073,-0.0897
"CCN(CCO)CCCOc1ccc2c(Nc3cc(CC(=O)Nc4cccc(F)c4)[nH]n3)ncnc2c1 [AZD2811] + C=CCn1c(=O)c2cnc(Nc3ccc(N4CCN(C)CC4)cc3)nc2n1-c1cccc(C(C)(C)O)n1 [AZD1775] (first compound max 1 µM, partner max 1 µM)",0.0382,0.0641,-0.0501,0.089,-0.0485,0.0084,-0.0152,-0.0344,0.042,-0.0179,0.0003,-0.0616,0.0293,0.0224,-0.0392,0.0106,-0.0708,-0.0365,0.0351
"COc1cccc(OCCCN)c1-c1cc(Nc2cnc(C#N)cn2)n[nH]1 [Prexasertib] + Cc1cc2ncnn2cc1Nc1ncc2c(n1)n(C1CCOCC1)c(=O)n2C [AZD7648] (first compound max 1 µM, 7x7, partner max 10 µM)",0.0031,-0.0311,-0.064,0,-0.0349,-0.045,-0.0467,-0.0259,-0.0296,-0.021,-0.0303,-0.0016,0.0182,-0.0214,-0.0172,-0.0165,0.0137,0.0099,0.0017
"CN(C)CCCOc1ccc(-c2ccc3ncc4c(c3c2)n(C2CCOCC2)c(=O)n4C)cn1 [AZD0156] + C=CCn1c(=O)c2cnc(Nc3ccc(N4CCN(C)CC4)cc3)nc2n1-c1cccc(C(C)(C)O)n1 [AZD1775] (first compound max 1 µM, partner max 1 µM)",0.0128,-0.0416,-0.0561,-0.0624,-0.0554,-0.0205,-0.0459,-0.0382,-0.124,-0.0689,-0.0426,-0.0043,-0.0638,-0.0429,-0.0575,0.0106,-0.055,-0.0497,0.0604
"COc1cccc(OCCCN)c1-c1cc(Nc2cnc(C#N)cn2)n[nH]1 [Prexasertib] + C=CCn1c(=O)c2cnc(Nc3ccc(N4CCN(C)CC4)cc3)nc2n1-c1cccc(C(C)(C)O)n1 [AZD1775] (first compound max 1 µM, partner max 1 µM)",0.0744,-0.0182,0.133,0.0444,0.0221,0.12,-0.0015,0.0261,0.0299,0.0872,-0.0815,0.044,0.11,0.0606,0.0441,0.0109,0.0569,0.117,0.0467
